ChEMBL document CHEMBL1143306, “3-amido-4-anilinoquinolines as CSF-1R kinase inhibitors 2: Optimization of the PK profile” (Bioorg Med Chem Lett, 2009)
Values after ≈ are worked out from the molar mass of the structure shown.

Experiments:
[1] = Plasma protein binding assessed as percentage unbound
[2] = Aqueous solubility of the compound; assay type: physicochemical; settings: buffer
[3] = system: NIH3T3; experiment: Antiproliferative activity against mouse 3T3 cells expressing human CSF1R after 72 hrs by Celltiter assay; assay type: functional
[4] = target: Macrophage colony-stimulating factor 1 receptor (Homo sapiens, UniProt P07333); experiment: Inhibition of CSF1R
[5] = Volume of distribution at steady state in rat at 3 mg/kg, iv and 10 mg/kg, po; assay type: ADME, organism-based; settings: in vivo, read-out: Vdss
[6] = system: Mus musculus; experiment: Inhibition of phosphorylated CSF1R level in 3T3/CSF1R mutant cells xenografted nude mouse at 25 mg/kg, po after 2 hrs by ELISA; assay type: functional
[7] = system: Mus musculus; experiment: Inhibition of phosphorylated CSF1R level in 3T3/CSF1R mutant cells xenografted nude mouse at 25 mg/kg, po after 6 hrs by ELISA; assay type: functional
[8] = Clearance in rat at 3 mg/kg, iv and 10 mg/kg, po; assay type: ADME, organism-based; settings: in vivo
[9] = Half life in rat at 3 mg/kg, iv and 10 mg/kg, po; assay type: ADME, organism-based; settings: in vivo
[10] = Bioavailability in rat at 3 mg/kg, iv and 10 mg/kg, po; assay type: ADME, organism-based; settings: in vivo

Sequence of Macrophage colony-stimulating factor 1 receptor (P07333 whole entry): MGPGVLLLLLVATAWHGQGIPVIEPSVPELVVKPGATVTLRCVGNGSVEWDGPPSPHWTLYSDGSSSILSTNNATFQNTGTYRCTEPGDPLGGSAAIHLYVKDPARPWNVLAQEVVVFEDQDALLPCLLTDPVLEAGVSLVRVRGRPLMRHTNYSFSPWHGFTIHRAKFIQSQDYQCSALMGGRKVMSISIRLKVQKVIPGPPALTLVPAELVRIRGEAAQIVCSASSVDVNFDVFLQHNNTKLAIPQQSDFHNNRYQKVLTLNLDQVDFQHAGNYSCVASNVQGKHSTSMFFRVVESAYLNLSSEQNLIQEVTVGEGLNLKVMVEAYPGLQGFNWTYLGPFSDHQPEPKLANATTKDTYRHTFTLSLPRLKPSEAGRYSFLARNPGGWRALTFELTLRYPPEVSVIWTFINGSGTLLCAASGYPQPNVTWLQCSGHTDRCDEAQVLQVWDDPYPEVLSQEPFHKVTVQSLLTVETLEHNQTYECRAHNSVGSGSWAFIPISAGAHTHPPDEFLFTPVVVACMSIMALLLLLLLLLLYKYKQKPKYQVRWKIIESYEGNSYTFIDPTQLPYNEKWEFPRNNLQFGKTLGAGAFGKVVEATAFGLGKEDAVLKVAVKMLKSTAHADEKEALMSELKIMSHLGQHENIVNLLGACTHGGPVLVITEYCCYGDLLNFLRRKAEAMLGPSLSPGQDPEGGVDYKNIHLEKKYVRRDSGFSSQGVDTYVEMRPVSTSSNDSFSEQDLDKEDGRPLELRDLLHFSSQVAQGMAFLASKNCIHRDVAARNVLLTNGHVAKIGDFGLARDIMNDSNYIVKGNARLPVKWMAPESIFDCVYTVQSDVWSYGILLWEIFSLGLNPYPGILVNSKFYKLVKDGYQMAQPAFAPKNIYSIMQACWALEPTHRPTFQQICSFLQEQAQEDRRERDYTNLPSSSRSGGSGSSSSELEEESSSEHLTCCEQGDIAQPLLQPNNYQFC

SMILES	fraction unbound [1]	solubility [2]	Activity [3]	IC50 [4]	Vd [5]	inhibition in vivo at 25 mg/kg [6]	inhibition in vivo at 25 mg/kg [7]	clearance [8]	half-life [9]	bioavailability [10]
CCOc1cc2ncc(C(N)=O)c(Nc3ccc(F)cc3F)c2cc1N1CCCN(C2CC2)CC1	0.022	100 µM (≈ 48.2 µg/mL)	0.27 µM							
CN1CCN(c2ccc3ncc(C(N)=O)c(Nc4ccc(Cl)c(Cl)c4)c3c2)CC1	0.058	720 µM (≈ 310 µg/mL)	2.7 µM	59 nM						
CCOc1cc2ncc(C(N)=O)c(Nc3cc(C)ccc3F)c2cc1N1CCN(C)CC1		66 µM (≈ 28.9 µg/mL)	0.09 µM		5.3 L/kg	90%	80%	28 mL/min/kg	2.3 h	88%
CCOc1cc2ncc(C(N)=O)c(Nc3cccc(Cl)c3F)c2cc1N1CCN(C)CC1	0.071	10 µM (≈ 4.58 µg/mL)	0.11 µM		1.9 L/kg	100%	90%	24 mL/min/kg	1.1 h	54%
CCOc1cc2ncc(C(N)=O)c(Nc3ccc(F)cc3F)c2cc1N1CCOCC1	0.084	64 µM (≈ 27.4 µg/mL)	0.48 µM		1.1 L/kg			36 mL/min/kg	0.6 h	25%
COCCOc1cc2ncc(C(N)=O)c(Nc3cccc(Cl)c3Cl)c2cc1N1CCN(C)CC1	0.1	380 µM (≈ 192 µg/mL)	0.01 µM		21 L/kg	100%	80%	290 mL/min/kg	0.83 h	32%
CCOc1cc2ncc(C(N)=O)c(Nc3cccc(Cl)c3Cl)c2cc1N1CCN(CC)CC1	0.019	11 µM (≈ 5.37 µg/mL)	0.02 µM		6.8 L/kg	95%	75%	86 mL/min/kg	1.2 h	19%
CCOc1cc2ncc(C(N)=O)c(Nc3ccc(Cl)c(Cl)c3)c2cc1N1CCN(C)CC1		3 µM (≈ 1.42 µg/mL)	0.06 µM		3.7 L/kg	80%	40%	47 mL/min/kg	1.2 h	42%
CCOc1cc2ncc(C(N)=O)c(Nc3ccc(F)cc3F)c2cc1N1CCN(CC)CC1	0.046	320 µM (≈ 146 µg/mL)	0.17 µM		3.6 L/kg			19 mL/min/kg	2.3 h	46%
COc1cc2ncc(C(N)=O)c(Nc3ccc(Cl)c(Cl)c3)c2cc1N1CCN(C)CC1	0.036		0.38 µM		3.8 L/kg			50 mL/min/kg	1.2 h	
COCCOc1cc2ncc(C(N)=O)c(Nc3cccc(Cl)c3F)c2cc1N1CCN(C)CC1	0.39	910 µM (≈ 444 µg/mL)	0.1 µM			80%	75%			
CCOc1cc2ncc(C(N)=O)c(Nc3ccc(F)cc3F)c2cc1N1CCCN(C)CC1	0.31	530 µM (≈ 241 µg/mL)			16 L/kg	90%	55%	32 mL/min/kg	6.6 h	16%
COCCOc1cc2ncc(C(N)=O)c(Nc3ccc(C)cc3F)c2cc1N1CCN(C)CC1	0.16	63 µM (≈ 29.5 µg/mL)			8.6 L/kg	100%	80%	33 mL/min/kg	3.4 h	100%
CCOc1cc2ncc(C(N)=O)c(Nc3cccc(Cl)c3Cl)c2cc1N1CCN(C(C)C)CC1	0.015	250 µM (≈ 126 µg/mL)	0.02 µM		11 L/kg	85%	65%	120 mL/min/kg	1.2 h	66%
COc1cc2c(Nc3ccc(Cl)c(Cl)c3)c(C(N)=O)cnc2cc1N1CCN(C)CC1			0.55 µM	24 nM						
CCOc1cc2ncc(C(N)=O)c(Nc3ccc(F)cc3F)c2cc1N1CCN(C(C)C)CC1		> 1000 µM	0.17 µM			70%	50%			
COc1cc2c(Nc3ccc(F)cc3F)c(C(N)=O)cnc2cc1N1CCN(C)CC1		> 1000 µM	0.72 µM	11 nM						
CC(C)Oc1cc2ncc(C(N)=O)c(Nc3ccc(F)cc3F)c2cc1N1CCN(C)CC1	0.017	52 µM (≈ 23.7 µg/mL)	0.17 µM		1.4 L/kg	100%	50%	7 mL/min/kg	2.3 h	40%
CC(C)Oc1cc2ncc(C(N)=O)c(Nc3ccc(Cl)c(Cl)c3)c2cc1N1CCN(C)CC1	0.01	250 µM (≈ 122 µg/mL)	0.12 µM							

SMILES	fraction unbound [1]	solubility [2]	Activity [3]	IC50 [4]	Vd [5]	inhibition in vivo at 25 mg/kg [6]	inhibition in vivo at 25 mg/kg [7]	clearance [8]	half-life [9]	bioavailability [10]
CCOc1cc2ncc(C(N)=O)c(Nc3cc(F)ccc3F)c2cc1N1CCN(C)CC1	0.073	71 µM (≈ 31.3 µg/mL)	0.11 µM		2.9 L/kg	75%	45%	28 mL/min/kg	1.3 h	33%
CCOc1cc2ncc(C(N)=O)c(Nc3ccc(F)cc3F)c2cc1N1CCN(C2CC2)CC1		150 µM (≈ 70.1 µg/mL)	0.66 µM		0.6 L/kg	70%	10%	21 mL/min/kg	0.9 h	34%
CCOc1cc2ncc(C(N)=O)c(Nc3cccc(Cl)c3Cl)c2cc1N1CCN(CCO)CC1	0.048	67 µM (≈ 33.8 µg/mL)	0.03 µM							
CCOc1cc2ncc(C(N)=O)c(Nc3cccc(Cl)c3Cl)c2cc1N1CCN(CCOC)CC1	0.017	13 µM (≈ 6.74 µg/mL)	0.03 µM							
COc1cc2c(Nc3cccc(Cl)c3Cl)c(C(N)=O)cnc2cc1N1CCN(C)CC1		220 µM (≈ 101 µg/mL)	0.17 µM							
COCCOc1cc2ncc(C(N)=O)c(Nc3cc(C)ccc3F)c2cc1N1CCN(C)CC1	0.16		0.17 µM		4.7 L/kg	85%	70%	60 mL/min/kg	4.2 h	45%
CCOc1cc2ncc(C(N)=O)c(Nc3cccc(Cl)c3Cl)c2cc1N1CCN(C(C)=O)CC1	0.096	2 µM (≈ 1 µg/mL)	0.07 µM		2.3 L/kg	65%	30%	62 mL/min/kg	0.65 h	11%
CCOc1cc2ncc(C(N)=O)c(Nc3ccc(F)cc3F)c2cc1N1CCC(O)CC1	0.089	2 µM (≈ 0.885 µg/mL)								
CCOc1cc2ncc(C(N)=O)c(Nc3ccc(C)cc3F)c2cc1N1CCN(C)CC1		54 µM (≈ 23.6 µg/mL)			1.8 L/kg		60%	10 mL/min/kg	2.3 h	46%
CCOc1cc2ncc(C(N)=O)c(Nc3cccc(Cl)c3Cl)c2cc1N1CCCN(C)CC1	0.019	130 µM (≈ 63.5 µg/mL)	0.05 µM		40 L/kg	90%	95%	63 mL/min/kg	8.6 h	100%
COCCOc1cc2ncc(C(N)=O)c(Nc3ccc(F)cc3F)c2cc1N1CCN(C)CC1	0.46	720 µM (≈ 339 µg/mL)			18 L/kg	100%	70%	68 mL/min/kg	3.8 h	100%
COc1cc2ncc(C(N)=O)c(Nc3ccc(F)cc3F)c2cc1OC			0.4 µM		0.9 L/kg			23 mL/min/kg	0.6 h	100%
CCOc1cc2ncc(C(N)=O)c(Nc3ccc(F)c(Cl)c3)c2cc1N1CCN(C)CC1	0.034		0.13 µM		9.3 L/kg	70%	55%	53 mL/min/kg	2.2 h	55%
CCOc1cc2ncc(C(N)=O)c(Nc3cccc(Cl)c3Cl)c2cc1N1CCCN(C(C)C)CC1	0.049	420 µM (≈ 217 µg/mL)	0.02 µM			90%	75%			
CCOc1cc2ncc(C(N)=O)c(Nc3cccc(Cl)c3Cl)c2cc1N1CCN(C(=O)CO)CC1	0.16	29 µM (≈ 15 µg/mL)	0.09 µM		2.2 L/kg			72 mL/min/kg	0.66 h	6%
CN1CCN(c2ccc3ncc(C(N)=O)c(Nc4ccc(Cl)cc4Cl)c3c2)CC1	0.018	180 µM (≈ 77.5 µg/mL)	8.9 µM	129 nM						
CC(C)Oc1cc2ncc(C(N)=O)c(Nc3cccc(Cl)c3Cl)c2cc1N1CCN(C)CC1	0.014	200 µM (≈ 97.7 µg/mL)	0.05 µM			70%	35%			
CC(C)Oc1cc2ncc(C(N)=O)c(Nc3cccc(Cl)c3F)c2cc1N1CCN(C)CC1	0.049	790 µM (≈ 373 µg/mL)	0.21 µM							
